Laboratory results published in patent US20250195500A1, “INJECTABLE PREPARATION COMPRISING ISOXAZOLINE DERIVATIVE, AND PREPARATION METHOD THEREFOR” (LG CHEM, LTD., priority 2022, published 2025).
Entries after “also recorded” stand apart in the source; their conditions may differ.

How the values were obtained:
[1] = Solubility in solvents of various compositions; format: physicochemical
From the text: Further, it was confirmed that the compound of Formula 1 has the property of reducing the pH of a solution while being dissolved in a solvent.

caspase = assay: Caspase inhibitory activity; format: biochemical; conditions: form present in aqueous solution
[2] = Conversion from compound of Formula 2 to compound of Formula 3 according to pH of solvent; format: physicochemical

solubility in solvent ([1]; basic solvent pH 9.0 or higher, strong acidic solvent pH 1 or lower or specific solvent that can be freeze-dried)	production of compound of Formula 3 from compound of Formula 2 ([2]; acidic solvent)	production of compound of Formula 3 from compound of Formula 2 ([2]; neutral or more basic solvent)	Compound	solubility in water ([1]; water)	caspase inhibitory activity (caspase)
dissolves well			CC(C)[C@@]1(C(=O)NC2CC(=O)OC2(O)CF)CC(c2nccc3ccccc23)=NO1 (stereo in doubt) [compound of Formula 1, (R)—N-((2S,3S)-2-(fluoromethyl)-2-hydroxy-5-oxotetrahydrofuran-3-yl)-5-isopropyl-3-(isoquinolin-1-yl)-4,5-dihydroisoxazol-5-carboxamide]	poorly soluble in water; also recorded: hardly soluble in water	
	hardly produced	rapidly produced	CC(C)[C@@]1(C(=O)N[C@H](CC(=O)O)C(=O)CF)CC(c2nccc3ccccc23)=NO1 [compound of Formula 3]		does not show the caspase inhibitory activity
			CC(C)[C@@]1(C(=O)N[C@@H](CC(=O)O)C(=O)CF)CC(c2nccc3ccccc23)=NO1 [compound of Formula 2]		active form
